This is an account of results in patent publication US20230277508A1, “USE OF COMPOUND AS CYP2E1 INHIBITOR” (SHANGHAI LING XI BIOTECHNOLOGY DEVELOPMENT CO., LTD., priority 2020, published 2023).

Type in all cases: biochemical
One data set has as its target T1, CYP2A6 (Homo sapiens, UniProt P11509).
T1 construct: With a mixed liver microsome of a healthy individual as a research object; from tissue; host or cells: mixed (pooled) human liver microsomes of healthy individuals
In words: Determination of selectivity of a CYP2E1 inhibitor: CYP2A6. The following applies: mixed human liver microsome, 2.5 μM coumarin probe; read-out: IC50 for 2A6 inhibition. An excerpt: (§1) With a mixed liver microsome of a healthy individual as a research object, probe drugs CYP1A2, CYP2A6, CYP2B6, CYP2C8, CYP2C9, CYP2C19, CYP2D6, CYP2E1, and CYP3A4 were selected to determine an in vitro inhibitory effect of an inhibitor to be tested on the metabolism of the probe drugs CYP1A2, CYP2A6, CYP2B6, CYP2C8, CYP2C9, CYP2C19, CYP2D6, CYP2E1, and CYP3A4 for the mixed liver microsome of the healthy human, and the selectivity of the inhibitor to be tested for a CYP2E1 inhibitory effect was evaluated.
(§2) The CYP1A2 probe is 6.25 μM to 800 μM phenacetin or 27.5 μM to 12,520 μM caffeine; • the CYP2A6 probe is 0.156 μM to 20 μM coumarin or 12.5 μM to 2,000 μM nicotine; • the CYP2B6 probe is 7.8 μM to 500 μM bupropion or 0.25 mM to 30 mM cyclophosphamide; • the CYP2C8 probe is 2.5 μM to 80 μM paclitaxel or 0.125 μM to 128 μM amodiaquine; • the CYP2C9 probe is 31.25 μM to 2,000 μM tolbutamide or 0.1 μM to 200 μM diclofenac; • the CYP2C19 probe is 3.9 μM to 500 μM omeprazole or 1.95 μM to 1,000 μM mephenytoin; • the CYP2D6 probe is 0.625 μM to 96 μM dextromethorphan or 0.0195 μM to 80 μM propafenone; and • the CYP3A4 probe is 0.39 μM to 50 μM midazolam or 1.98 μM to 1,000 μM testosterone.
(§3) An incubation system in a total volume of 100 μL was adopted, including a substrate, an inhibitor of different concentrations, a liver microsomal protein, and PBS. […]

Data set [1] has as its target T2, human liver microsome CYP2E1 (Homo sapiens, UniProt P05181).
T2 construct: metabolic activity of a mixed liver microsome CYP2E1 of a healthy individual; from tissue; host or cells: mixed (pooled) human liver microsomes of healthy individuals
Kind of data set: Determination of IC50 for a CYP2E1 inhibitory effect (CZX probe, mixed liver microsome). The conditions noted are these: for inhibitory effect on CYP2E1 (in words): in vitro, method of Example 8; for IC50: mixed liver microsome of healthy individuals 0.3 mg/mL, 62.5 μM CZX, 1 mM NADPH, 30 min, read-out: IC50 for 2E1 inhibition. As to the method: CZX was used as a probe substrate to detect an inhibitory effect of an inhibitor to be tested on the metabolic activity of a mixed liver microsome CYP2E1 of a healthy individual (IC50: half inhibition concentration; Ki: inhibition constant; the smaller the IC50 and the smaller the Ki, the higher the inhibition intensity of the inhibitor), thereby determining an inhibitory effect of the inhibitor to be tested on the human liver microsome CYP2E1.
An incubation system in a total volume of 100 μL was adopted, including a substrate, an inhibitor of different concentrations, a liver microsomal protein, and phosphate-buffered saline (PBS). The incubation system was pre-incubated in a 37° C. water bath for 5 min, reduced coenzyme was added to allow a reaction for 30 min, and then the reaction was terminated in an ice bath. In a specific experiment, a concentration of an inhibitor can be selected as required.
In this example, the incubation system includes 62.5 μM CZX, 100 mM (pH=7.4) PBS, 0.3 mg/mL liver microsomal protein, and 1 mM NADPH.
In this example, the reaction is terminated with 1 mL of ethyl acetate. In other preferred examples, the reaction may also be terminated with 1 mL of methyl tert-butyl ether (MTBE), 1 mL of diethyl ether, or 100 μL of methanol.

The target of a further data set is T3, CYP2C9 (Homo sapiens, UniProt P11712).
T3 construct: With a mixed liver microsome of a healthy individual as a research object; from tissue; host or cells: mixed (pooled) human liver microsomes of healthy individuals
T3 sequence (P11712 whole entry): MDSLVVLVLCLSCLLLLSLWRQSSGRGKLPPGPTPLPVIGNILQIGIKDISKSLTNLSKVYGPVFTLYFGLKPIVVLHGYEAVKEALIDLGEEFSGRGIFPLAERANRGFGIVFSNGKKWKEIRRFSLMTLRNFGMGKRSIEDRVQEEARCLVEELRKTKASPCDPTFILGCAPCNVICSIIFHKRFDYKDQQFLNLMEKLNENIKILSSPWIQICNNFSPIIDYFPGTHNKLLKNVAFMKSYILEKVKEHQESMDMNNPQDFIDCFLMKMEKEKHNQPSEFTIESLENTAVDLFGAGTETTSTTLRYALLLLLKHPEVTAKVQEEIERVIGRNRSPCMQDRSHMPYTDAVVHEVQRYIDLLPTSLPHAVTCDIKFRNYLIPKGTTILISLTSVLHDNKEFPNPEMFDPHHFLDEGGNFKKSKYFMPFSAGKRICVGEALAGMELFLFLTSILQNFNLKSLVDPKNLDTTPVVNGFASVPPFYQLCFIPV
In words: Determination of selectivity of a CYP2E1 inhibitor: CYP2C9. The conditions noted are these: mixed human liver microsome, 250 μM tolbutamide probe; read-out: IC50 of the inhibition for CYP2C9.
Description: as §1, §2, §3

T2 sequence (P05181 whole entry): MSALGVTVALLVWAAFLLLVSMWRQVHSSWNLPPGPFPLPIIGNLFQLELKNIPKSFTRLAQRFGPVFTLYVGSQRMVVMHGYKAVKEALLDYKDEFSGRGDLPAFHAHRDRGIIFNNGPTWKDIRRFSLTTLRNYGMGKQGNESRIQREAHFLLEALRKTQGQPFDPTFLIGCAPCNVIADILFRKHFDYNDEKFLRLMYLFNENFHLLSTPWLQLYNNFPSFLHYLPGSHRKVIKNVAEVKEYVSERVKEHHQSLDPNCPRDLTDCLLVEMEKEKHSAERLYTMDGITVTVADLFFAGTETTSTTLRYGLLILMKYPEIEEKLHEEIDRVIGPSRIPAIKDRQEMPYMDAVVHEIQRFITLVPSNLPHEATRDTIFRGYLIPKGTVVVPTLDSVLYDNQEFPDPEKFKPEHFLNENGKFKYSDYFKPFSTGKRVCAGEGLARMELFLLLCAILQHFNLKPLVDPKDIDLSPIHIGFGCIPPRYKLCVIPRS
T1 sequence (P11509 whole entry): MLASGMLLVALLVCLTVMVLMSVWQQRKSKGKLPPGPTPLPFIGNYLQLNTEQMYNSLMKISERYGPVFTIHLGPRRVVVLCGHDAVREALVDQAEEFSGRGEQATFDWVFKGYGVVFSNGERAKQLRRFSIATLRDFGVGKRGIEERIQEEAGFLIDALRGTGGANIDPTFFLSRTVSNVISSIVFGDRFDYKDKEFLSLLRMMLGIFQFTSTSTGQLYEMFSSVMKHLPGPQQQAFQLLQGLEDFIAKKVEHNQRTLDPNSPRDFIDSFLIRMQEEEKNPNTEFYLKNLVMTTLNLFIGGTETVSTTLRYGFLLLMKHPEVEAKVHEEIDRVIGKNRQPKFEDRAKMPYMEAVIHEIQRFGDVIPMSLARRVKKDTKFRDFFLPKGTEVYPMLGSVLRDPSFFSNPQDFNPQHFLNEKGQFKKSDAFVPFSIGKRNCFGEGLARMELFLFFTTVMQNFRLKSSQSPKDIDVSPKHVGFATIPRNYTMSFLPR

For the compound `CCc1nc(COC(=O)c2cccn2Cc2ccncc2)cs1` [SMI1], the IC50 on CYP2A6 was found to be 55.6 µM; in data set [1], 7.99 µM; at CYP2C9 it was 1.86 µM. Also, in data set [1], the “inhibitory effect on CYP2E1 (in words)” value is reported as “significant inhibitory effect”.
On to `CO/N=C(\C)c1scnc1C` [SMI8], for which, in data set [1], the “inhibitory effect on CYP2E1 (in words)” value is recorded as “significant inhibitory effect” and the IC50 is 17 µM.
Taken in the same sequence, the figures for `COc1cccc(/C=C/C(=O)c2scnc2C)c1` [SMI10] were “slight inhibitory effect” and 115 µM.

Usually IC50 stands for the midpoint of a concentration-inhibition curve.
